Reference: patent US9169279B2, “Crystallization method and bioavailability” (THAR PHARMACEUTICALS, INC., priority 2009, dated 2015)
Like-named read-outs stand apart in the source and are kept apart here.

Tests used:
[1] = Dog PK study: zoledronic acid in serum after IV or oral capsule dosing, enteric or non-enteric coated, with or without excess coformer (LC/MS/MS); assay type: in vivo, Beagle dogs; settings: beagle
Source text: This can be attributed to the fact that both animals have historically been used in the safety evaluation and PK screening studies and are recommended by appropriate regulatory agencies. […] Additional tests included ID administration in rats and administration of enteric coated capsules in dogs.
USA. Some animals have surgical catheters (jugular vein and intraduodenum) were implanted to the animals prior to the studies. Beagle dogs from Marshall Farms, N.Y., USA, weighing from (9-12 kg) were used in the studies presented herein. Surgical catheters (jugular vein) were implanted prior to the studies.
The dose volume of each dog was adjusted based upon the average weight of the dog. • ii. […]
Blood samples were placed without the use of an anticoagulant and allowed to sit at room temperature for approximately 30 minutes. Samples were then centrifuged at a temperature of 4° C., at a speed of 13,000 rpm, for 5 minutes. Serum was collected and split into two aliquots and stored frozen (−80° C.) until analysis.
In this study, capsules of particulate materials (zoledronic:DL-lysine:water complex and excess pure DL-lysine).

[2] = Dog urine excretion: quantity of zoledronic acid in urine over collection intervals (LC/MS/MS); assay type: in vivo, Beagle dogs; settings: Leg 38, 0.12 mg/kg IV, saline solution
[3] = cited from earlier work
[4] = in vivo; cited from earlier work
[5] = according to FDA Summary Basis of Approval; cited from earlier work
[6] = iv, 0.12 mg/kg, Leg 38, 0.12 mg/kg IV, saline solution, read-out: Average serum concentration of 4 dogs
[7] = iv, 0.183 mg/kg, Leg 13, 0.183 mg/kg IV, saline solution, read-out: Average serum concentration of 5 dogs
[8] = po, Leg 19, 61.3 mg with 322.9 mg DL-lysine monohydrate, gelatin capsule, PO, read-out: Average serum concentration of 5 dogs
[9] = po, Leg 24, 64.0 mg with 374.8 mg L-lysine HCl, gelatin capsule, PO, read-out: Average serum concentration of 5 dogs

With `O=P(O)(O)C(O)(Cn1ccnc1)P(=O)(O)O` [Zoledronic acid, (1-hydroxy-2-imidazol-1-yl-1-phosphono-ethyl)phosphonic acid] as the compound, how does the concentration at 1 h [1, 6] read?
Its concentration at 1 h is 174 ng/mL.

And the concentration at 1.25 h [1, 6]?
Its concentration at 1.25 h is 121 ng/mL.

And the concentration at 1.5 h [1, 6]?
Its concentration at 1.5 h is 90.6 ng/mL.

What about the concentration at 2 h [1, 6] of the same compound?
The concentration at 2 h was 55.7 ng/mL.

What about the concentration at 4 h [1, 6] of the same compound?
The concentration at 4 h was 15.1 ng/mL.

And the concentration at 8 h [1, 6]?
The concentration at 8 h was 5.74 ng/mL.

And the concentration at 24 h [1, 6]?
Its concentration at 24 h is 2.49 ng/mL.

And the concentration at 0 h [1, 7]?
Its concentration at 0 h is 0.64 ng/mL.

What about the concentration at 5 min [1, 7] of the same compound?
Its concentration at 5 min is 477 ng/mL.

And the concentration at 10 min [1, 7]?
The concentration at 10 min was 756 ng/mL.

What about the concentration at 0.25 h [1, 7] of the same compound?
The concentration at 0.25 h was 1060 ng/mL.

And the concentration at 20 min ([1]; iv, 0.183 mg/kg, Leg 13, 0.183 mg/kg IV, saline solution, 20 min, read-out: Average serum concentration of 5 dogs)?
Its concentration at 20 min is 746 ng/mL.

And the concentration at 25 min ([1]; iv, 0.183 mg/kg, Leg 13, 0.183 mg/kg IV, saline solution, 25 min, read-out: Average serum concentration of 5 dogs)?
The concentration at 25 min was 629 ng/mL.

What about the concentration at 0.5 h [1, 7] of the same compound?
Its concentration at 0.5 h is 523 ng/mL.

And the concentration at 0.75 h [1, 7]?
The concentration at 0.75 h was 343 ng/mL.

And the concentration at 1 h [1, 7]?
The concentration at 1 h was 245 ng/mL.

And the concentration at 1.25 h [1, 7]?
The concentration at 1.25 h was 183 ng/mL.

And the concentration at 1.5 h [1, 7]?
Its concentration at 1.5 h is 140 ng/mL.

What about the concentration at 2 h [1, 7] of the same compound?
The concentration at 2 h was 80.9 ng/mL.

And the concentration at 4 h [1, 7]?
Its concentration at 4 h is 23.4 ng/mL.

And the concentration at 8 h [1, 7]?
The concentration at 8 h was 8.78 ng/mL.

What about the concentration at 24 h [1, 7] of the same compound?
The concentration at 24 h was 3.84 ng/mL.

And the concentration at 0 h [1, 8]?
Its concentration at 0 h is 0 ng/mL.

What about the concentration at 5 min [1, 8] of the same compound?
Its concentration at 5 min is 34.1 ng/mL.

What about the concentration at 10 min [1, 8] of the same compound?
Its concentration at 10 min is 42.7 ng/mL.

What about the concentration at 0.25 h [1, 8] of the same compound?
Its concentration at 0.25 h is 220 ng/mL.

And the concentration at 0.5 h [1, 8]?
Its concentration at 0.5 h is 659 ng/mL.

What about the concentration at 0.75 h [1, 8] of the same compound?
Its concentration at 0.75 h is 479 ng/mL.

What about the concentration at 1 h [1, 8] of the same compound?
The concentration at 1 h was 384 ng/mL.

What about the concentration at 1.5 h [1, 8] of the same compound?
Its concentration at 1.5 h is 210 ng/mL.

And the concentration at 2 h [1, 8]?
The concentration at 2 h was 136 ng/mL.

And the concentration at 4 h [1, 8]?
Its concentration at 4 h is 34.2 ng/mL.

And the concentration at 8 h [1, 8]?
Its concentration at 8 h is 8.53 ng/mL.

And the concentration at 24 h [1, 8]?
Its concentration at 24 h is 2.07 ng/mL.

And the concentration at 0 h [1, 9]?
The concentration at 0 h was 0 ng/mL.

What about the concentration at 5 min [1, 9] of the same compound?
The concentration at 5 min was 0 ng/mL.

What about the concentration at 10 min [1, 9] of the same compound?
The concentration at 10 min was 1.2 ng/mL.

And the concentration at 0.25 h [1, 9]?
The concentration at 0.25 h was 14.1 ng/mL.

What about the concentration at 0.5 h [1, 9] of the same compound?
The concentration at 0.5 h was 172 ng/mL.

And the concentration at 0.75 h [1, 9]?
The concentration at 0.75 h was 340 ng/mL.

What about the concentration at 1 h [1, 9] of the same compound?
The concentration at 1 h was 283 ng/mL.

What about the concentration at 1.5 h [1, 9] of the same compound?
The concentration at 1.5 h was 163 ng/mL.

What about the concentration at 2 h [1, 9] of the same compound?
The concentration at 2 h was 100 ng/mL.

And the concentration at 4 h [1, 9]?
Its concentration at 4 h is 26.3 ng/mL.

And the concentration at 8 h [1, 9]?
Its concentration at 8 h is 4.56 ng/mL.

What about the concentration at 24 h [1, 9] of the same compound?
Its concentration at 24 h is 0.89 ng/mL.

And the “Average quantity of zoledronic acid in urine excretion of 4 dogs” value (from here on “Average quantity of zoledronic acid”) ([2]; interval 0-4 h)?
Its value is 242050 ng.

And the “Average quantity of zoledronic acid” value ([2]; interval 4-8 h)?
The value was 21165 ng.

And the “Average quantity of zoledronic acid” value ([2]; interval 8-12 h)?
Its value is 10925 ng.

And the “Average quantity of zoledronic acid” value ([2]; interval 12-24 h)?
Its value is 43700 ng.

And the “Average quantity of zoledronic acid” value ([2]; interval 24-96 h)?
The value was 263151 ng.

What about the solubility ([3]; in 0.1 N HCl solution) of the same compound?
Its solubility is “sparingly soluble”.

And the solubility ([3]; in 0.1 N NaOH)?
The solubility was “freely soluble”.

What about the solubility ([3]; in various organic solvents) of the same compound?
The solubility was “practically insoluble”.

What about the solubility ([3]; in water) of the same compound?
The solubility was “sparingly soluble”.

What about the “gastric and intestinal irritations” value [4] of the same compound?
Its value is “severe gastric and intestinal irritations”.

And the oral bioavailability [5]?
Its oral bioavailability is “approximately 1%”.
